Experimental data taken from patent publication US20070259861A1, “Combination therapy with non-selective COX inhibitors to prevent COX-related gastric injuries” (Pharmena North America Inc., priority 2006, published 2007).
One block for each molecule: values may come before it.

Tests used:
[1] = tested on: prostacyclin (PGI2) release; conditions: cited from earlier work; for release of prostacyclin: animal models
gastric mucosa = test: ASA- and WRS-induced gastric lesions in non-diabetic and streptozocin-diabetic rats; type: in vivo; conditions: for rise of gastric blood flow (GBF): H2-gas clearance
Description: In this study, streptozocin (70 mg/kg injected intraperitoneally) was used to induce diabetes mellitus and non-diabetic and diabetic rats were pretreated 30 min prior to exposure to aspirin (ASA; 150 mg/kg in 0.1 N HCl i.g.) or 3.5 h of water immersion and restraint stress (WRS) with 1) vehicle (saline) or 2) MNA (2.5-50 mg/kg i.g.). The area and number of gastric lesions was determined by planimetry, gastric blood flow (GBF) was examined by H2-gas clearance technique, and mieloperoxidase (MPO) activity, activity of superoxide dismutase (SOD) and the malonyldialdehyde (MDA) concentration as an index of lipid peroxidation were determined in gastric mucosa using ELISA. The gene expression IL-1β and TNF-α in the gastric mucosa and their plasma levels were evaluated by RT-PCR and ELISA, respectively. […] This experiment is also described in an abstract published for Digestive Disease Week 2006 (May 20-25, 2006, Los Angeles, Calif.; http://www.medscape.com/viewprogram/5452).

[2] = ASA 150 mg/kg in 0.1 N HCl i.g.

Molecule: 1-methyl-3-acetylpyridinium salt
release of prostacyclin [1]: ability to induce the release of prostacyclin

Molecule: C[n+]1cccc(C(=O)NCO)c1 [1-methyl-N′-(hydroxymethyl)nicotinamide]
release of prostacyclin [1]: ability to induce the release of prostacyclin

Molecule: C[n+]1cccc(C(N)=O)c1 [1-methylnicotinamide chloride]
release of prostacyclin [1]: ability to induce the release of prostacyclin

gastric lesions (gastric mucosa; [2]): typical gastric lesions | reduction of GBF from basal (gastric mucosa; [2]): 35% | increase of MPO activity (gastric mucosa; ASA 150 mg/kg in 0.1 N HCl i.g., gastric mucosa): 2-3 fold | mucosal SOD activity (gastric mucosa; ASA-exposed animals without or with diabetes): significantly decreased | MDA activity (lipid peroxidation) (gastric mucosa; ASA-exposed animals without or with diabetes, gastric mucosa): significantly increased | plasma levels of TNF-α and IL-1 (gastric mucosa; ASA-exposed, ELISA): marked increase | mRNAs for TNF-α and IL-1 (gastric mucosa; ASA-exposed, gastric mucosa, RT-PCR): overexpression
Molecule: CC(=O)Oc1ccccc1C(=O)O [ASA, aspirin]

Molecule: CNC(=O)c1cccnc1 [MNA, N-methylnicotinamide]
decrease of mucosal SOD activity and increase of MDA (gastric mucosa; ASA- and WRS-exposed animals without or with diabetes): markedly attenuated | WRS-induced gastric erosions (gastric mucosa; MNA 2.5-50 mg/kg i.g. 30 min before 3.5 h WRS, diabetic and non-diabetic rats): dose-dependently attenuated | ASA-induced gastric erosions (gastric mucosa; MNA 2.5-50 mg/kg i.g. 30 min before ASA 150 mg/kg i.g., diabetic and non-diabetic rats): dose-dependently attenuated | IL-1β and TNF-α (gastric mucosa; gastric mucosa expression (RT-PCR) and plasma levels (ELISA)): downregulation | rise of gastric blood flow (GBF) (gastric mucosa; injured gastric mucosa): ~33% | rise of gastric blood flow (GBF) (gastric mucosa; intact gastric mucosa): about 22% | secretion of PGI2 ([1]; thrombolytic assay): stimulate the secretion of PGI2
